According to patent publication US20240391931A1 (Bristol-Myers Squibb Company, priority 2021, published 2024):
Where a name gives a salt, the structure may show the parent alone.

Legend:
[1] = molecular target: T1, HER2YVMA (Homo sapiens, UniProt P04626, INS775YVMA); assay: HER2 occupancy assay in Ba/F3-HER2YVMA cells; assay type: cell-based; parameters: expressed in transfected cells; host or cells: Ba/F3 (clones); lentiviral vector pCDH-CMV-MCS-EF1-Neo; details: concentration at which 50% of HER2 is irreversible bound, read-out: Ba/F3 YVMA HER2 Occ
T1 sequence (P04626 with tags, fused parts or gaps INS775YVMA): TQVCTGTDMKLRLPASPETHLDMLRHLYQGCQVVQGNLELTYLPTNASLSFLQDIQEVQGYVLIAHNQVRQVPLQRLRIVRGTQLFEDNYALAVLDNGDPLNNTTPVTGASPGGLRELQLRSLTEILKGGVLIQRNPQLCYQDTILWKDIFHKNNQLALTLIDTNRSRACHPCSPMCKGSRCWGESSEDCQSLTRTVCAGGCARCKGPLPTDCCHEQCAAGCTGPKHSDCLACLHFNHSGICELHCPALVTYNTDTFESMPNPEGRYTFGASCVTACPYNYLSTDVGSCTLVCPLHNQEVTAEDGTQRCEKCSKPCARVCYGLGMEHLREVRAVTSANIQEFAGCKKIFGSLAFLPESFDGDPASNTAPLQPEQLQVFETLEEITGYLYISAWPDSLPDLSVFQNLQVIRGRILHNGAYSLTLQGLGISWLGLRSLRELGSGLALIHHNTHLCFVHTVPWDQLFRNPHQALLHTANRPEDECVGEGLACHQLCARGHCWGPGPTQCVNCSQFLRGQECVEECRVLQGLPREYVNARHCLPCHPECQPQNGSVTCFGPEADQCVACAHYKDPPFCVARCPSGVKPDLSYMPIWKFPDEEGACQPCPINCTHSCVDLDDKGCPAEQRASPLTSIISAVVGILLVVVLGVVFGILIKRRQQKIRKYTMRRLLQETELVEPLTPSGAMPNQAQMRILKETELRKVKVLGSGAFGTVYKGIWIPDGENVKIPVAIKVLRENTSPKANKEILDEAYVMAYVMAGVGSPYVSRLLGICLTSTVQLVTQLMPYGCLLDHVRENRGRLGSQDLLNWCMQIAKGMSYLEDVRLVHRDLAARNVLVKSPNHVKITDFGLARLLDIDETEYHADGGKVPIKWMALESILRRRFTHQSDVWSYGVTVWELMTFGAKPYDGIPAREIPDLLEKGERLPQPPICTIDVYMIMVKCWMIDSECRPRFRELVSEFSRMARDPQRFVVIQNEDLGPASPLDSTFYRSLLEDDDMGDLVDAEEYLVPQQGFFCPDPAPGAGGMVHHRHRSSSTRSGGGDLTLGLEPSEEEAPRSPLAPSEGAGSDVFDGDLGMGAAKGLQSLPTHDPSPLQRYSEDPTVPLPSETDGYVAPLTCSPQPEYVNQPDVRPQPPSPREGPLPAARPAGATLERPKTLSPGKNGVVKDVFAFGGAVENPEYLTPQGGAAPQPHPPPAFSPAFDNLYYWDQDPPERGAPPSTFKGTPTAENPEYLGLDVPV
Experimental: In order to assess free HER2 protein, a biotinylated probe was utilized. BT474, N87, and Ba/F3-HER2YVMA cells were treated with test compound as described for HER2 signaling. After compound treatment, cells were washed three times with cold phosphate buffer saline (PBS, Life Technologies, Carlsbad, CA), and lysed in modified occupancy lysis buffer prepared with an irreversible biotinylated tool compound (1 μM) in 25 mM Tris pH 7.5, 150 mM NaCl, 1% Triton, and supplemented with cOmplete, EDTA-free Protease inhibitor cocktail (Roche), Phosphatase Inhibitor Cocktails 2 and 3 (Sigma-Aldrich), and 1 mM PMSF (Sigma-Aldrich). To determine % occupancy, lysates were loaded into duplicate plates of the phospho ([…])/total ErbB2 whole cell lysate MSD kit (Meso-Scale Discovery) and incubated overnight. Plates were washed and incubation with either HER2-sulfoTag (1:50, Meso Scale Discovery) or Strep-Sulfo Tag (1:1000, Meso Scale Discovery), for detection of […]. A standard curve of untreated cells in serial dilution was included in each plate to independently fit streptavidin (Free HER2) and total HER2 MSD signals; non-specific signal (BSA control spots) was subtracted from each well. Free HER2 was then normalized by total HER2 for each sample. The results are reported as % DMSO control. The normalized data was fitted using a sigmoidal curve analysis program (Graph Pad Prism version 6) with variable Hill slope to determine EC50 values. The results are provided in Table 4, under columns titled “BT474-HER2 Occ”, “N87-HER2 Occ”, and “Ba/F3 YVMA-HER2 Occ”. HER2 Occ is the concentration of test compound at which 50% of HER2 is irreversible bound.

[2] = molecular target: T1, HER2YVMA; assay: HER2 signaling (pHER2) in Ba/F3-HER2YVMA cells; assay type: cell-based; parameters: expressed in transfected cells; host or cells: HEK293 (pool), Ba/F3 (clones), BEAS2B (clones); lentiviral vector pCDH-CMV-MCS-EF1-Neo; details: read-out: Ba/F3 YVMA pHER2 EC50
Experimental: Cell culture, plasmid cloning, and lentiviral transduction were carried out according to standard procedures. The Human HER2 cDNA construct in pCMV6-Entry for the HER2 wildtype (WT) expression was obtained from Origene. The HER2 cDNA including the 12-nucleotide insertion corresponding to YVMA insertion (HER2YVMA) was codon optimized, synthesized and cloned by GenScript (Piscataway, NJ) in pcDNA3.1. The lentiviral constructs expressing HER2YVMA and HER2 WT were sub-cloned using PCR at System Biosciences (SBI, Mountainview, CA) into lentiviral vectors pCDH-CMV-MCS-EF1-Neo and lentiviral particles were generated.
Engineered lines expressing HER2YVMA and HER2 WT were prepared in HEK293 (human embryonic kidney cells), Ba/F3 (Interleukin 3 (IL3)-dependent murine pro B cell line), and BEAS2B (primary immortalized human bronchial epithelial cell line). Ba/F3, BEAS2B, and HEK293 cells were obtained from the American Type Culture Collection (ATCC, Manassas, VA). Parental Ba/F3 cells were grown in suspension in complete RPMI 1640 supplemented with 10% FBS and 1% P/S and 10 ng/ml interleukin 3 (IL3, Sigma-Aldrich). Hek293 and BEAS2B cells were grown as monolayers in DMEM supplemented with 10% FBS and 1% P/S. All cells were maintained and propagated in a humidified 5% CO2 incubator at 37° C.
To generate Ba/F3, BEAS2B, and Hek-293 cells engineered with lentivirus to express HER2 WT or HER2YVMA, the cells were transduced with lentiviruses at multiplicity of infection (MOI) of 1 or 10; transduced cells were selected and maintained with G418 ([…]) (Geneticin, Life Technologies, Carlsbad, CA). Ba/F3 engineered cells were subjected to gradual withdrawal of interleukin 3 (IL-3, Sigma-Aldrich). After selection, IL3 independent Ba/F3 HER2YVMA, and BEAS2B HER2YVMA cells were cloned by limiting dilution. Hek293 HER2YVMA cells were used as pool. HER2 and phospho HER2 levels were confirmed by flow cytometery and immunoassay (MSD, Meso-Scale Discovery, Rockville, Maryland).
Compound treatment of Ba/F3-HER2YVMA suspension cells was done as described with minor modifications. Cells were plated at 300000 cell/well in 96-well round bottom plates in RPMI supplemented with 2% FBS and immediately dosed with compounds serially diluted in media without serum for a final concentration of 1% FBS, 0.1% DMSO. Cells were incubate with compounds for 1.5 hr, and plates were spun at 1500 rpm for 5 mins to remove media without disturbing pellet. Cells were lysed as described above.
HER2 signaling was evaluated using phospho (Tyr1248)/total ErbB2 whole cell lysate MSD plates (Meso-Scale Discovery, Gaithersburg, MD). The phospho HER2 signal was normalized to total HER2 for each sample; results are reported as % DMSO control. The normalized data was fitted using a sigmoidal curve analysis program (Graph Pad Prism version 6) with variable Hill slope to determine EC50 values.
The HER2 signaling results are provided in Table 4, under columns titled “BT474-pHER2 EC50”, “N87-pHER2 EC50”, and “NCI-H1781-pHER2 EC50”. Hek293-HER2YVMA ins fall under the heading “HEKYVMA-pHER2 EC50”, Ba/F3 HER2YVMA fall under the heading “Ba/F3 YVMA-pHER2 EC50” and BEAS2B-HER2YVMA fall under the heading “BEAS2B YVMA-pHER2 EC50”.

| Structure (SMILES) | EC50 [1] | EC50 [2] |
| --- | --- | --- |
| Cc1ccc(Oc2ccc(Nc3ncnc4sc5c(c34)CCN(C(=O)/C=C/CN3CC4CCC(C4)C3)C5)cc2C)cn1 [Compound 16, (E)-4-(3-azabicyclo[3.2.1]octan-3-yl)-1-(4-((3-methyl-4-((6-methylpyridin-3-yl)oxy)phenyl)amino)-5,8-dihydropyrido[4′,3′:4,5]thieno[2,3-d]pyrimidin-7(6H)-yl)but-2-en-1-one benzenesulfonate salt] | < 100 nM | < 100 nM |
| Cc1ccc(Oc2ccc(Nc3ncnc4sc5c(c34)CCN(C(=O)/C=C/CN3CCOCC3)C5)cc2C)cn1 [Compound 17, (E)-1-(4-((3-Methyl-4-((6-methylpyridin-3-yl)oxy)phenyl)amino)-5,6-dihydropyrido[4′,3′:4,5]thieno[2,3-d]pyrimidin-7(8H)-yl)-4-morpholinobut-2-en-1-one] | < 100 nM | < 100 nM |
| Cc1cc(Nc2ncnc3sc4c(c23)CCN(C(=O)/C=C/CN2CCOCC2)C4)ccc1Oc1ccc2ncnn2c1 [Compound 12] | – | < 100 nM |
| Cc1ccc(Oc2ccc(Nc3ncnc4sc5c(c34)CCN(C(=O)/C=C/CN(C)C)C5)cc2C)cn1 [Compound 8, (E)-4-(Dimethylamino)-1-(4-((3-methyl-4-((6-methylpyridin-3-yl)oxy)phenyl)amino)-5,6-dihydropyrido[4′,3′:4,5]thieno[2,3-d]pyrimidin-7(8H)-yl)but-2-en-1-one] | < 100 nM | < 100 nM |
